Literature values in patent publication US12351592B2 (UNIVERSIDAD SANTIAGO DE CALI, priority 2019, dated 2025).

SMILES: CN(C)C(=N)N=C(N)N [Metformin]
- distribution volume (Vd) (in vivo): 654±358 I
- access to erythrocytes (slow access): 5 % of the blood dose
